Measurements as given in patent EP0584797A2, “Novel cephalosporin compounds and processes for the preparation thereof” (LUCKY LTD., priority 1992, dated 1994).
Converted amounts (≈) assume the structure as drawn.

Key:
Experiment in all cases: minimal inhibitory concentration, two-fold agar dilution
Format in all cases: cell-based
[1] = system: Acinetobacter calcoaceticus ATCC 15473; details: ATCC15473, Muller-Hinton agar, 37°C, 20 hours, read-out: MIC values against the standard strains
Protocol: (§1) These MIC values were taken by employing a two-fold dilution method: that is, two-fold serial dilutions of each of the test compounds were made and dispersed in a Muller-Hinton agar medium; 2µl of the standard test strain which had the 10⁷ CFU(Colony Forming Unit) per ml was inoculated on the medium; and these were incubated at 37°C for 20 hours.

[2] = system: Bacillus cereus ATCC 11778; details: ATCC11778, Muller-Hinton agar, 37°C, 20 hours, read-out: MIC values against the standard strains
Protocol: as §1

[3] = system: Bacillus megaterium ATCC 9885; details: Priestia megaterium, ATCC9885; Muller-Hinton agar; 37°C; 20 hours; read-out: MIC values against the standard strains
Protocol: as §1

[4] = system: Citrobacter freundii ATCC 8090; details: ATCC8090, Muller-Hinton agar, 37°C, 20 hours, read-out: MIC values against the standard strains
Protocol: as §1

[5] = system: Enterobacter aerogenes ATCC 29751; details: Klebsiella aerogenes, ATCC29751; Muller-Hinton agar; 37°C; 20 hours; read-out: MIC values against the standard strains
Protocol: as §1

[6] = system: Enterobacter cloacae ATCC 27508; details: ATCC27508, Muller-Hinton agar, 37°C, 20 hours, read-out: MIC values against the standard strains
Protocol: as §1

[7] = system: Escherichia coli ATCC 10536; details: ATCC10536, Muller-Hinton agar, 37°C, 20 hours, read-out: MIC values against the standard strains
Protocol: as §1

[8] = system: Escherichia coli ATCC 25922; details: ATCC25922, Muller-Hinton agar, 37°C, 20 hours, read-out: MIC values against the standard strains
Protocol: as §1

[9] = system: Klebsiella pneumoniae ATCC 10031; details: ATCC10031, Muller-Hinton agar, 37°C, 20 hours, read-out: MIC values against the standard strains
Protocol: as §1

[10] = system: Micrococcus luteus ATCC 9341; details: ATCC9341, Muller-Hinton agar, 37°C, 20 hours, read-out: MIC values against the standard strains
Protocol: as §1

[11] = system: Morganella morganii ATCC 8076h; details: ATCC8076H, Muller-Hinton agar, 37°C, 20 hours, read-out: MIC values against the standard strains
Protocol: as §1

[12] = system: Proteus mirabilis ATCC 25933; details: ATCC25933, Muller-Hinton agar, 37°C, 20 hours, read-out: MIC values against the standard strains
Protocol: as §1

[13] = system: Proteus vulgaris ATCC 6059; details: ATCC6059, Muller-Hinton agar, 37°C, 20 hours, read-out: MIC values against the standard strains
Protocol: as §1

[14] = system: Providencia rettgeri ATCC 9250; details: ATCC9250, Muller-Hinton agar, 37°C, 20 hours, read-out: MIC values against the standard strains
Protocol: as §1

[15] = system: Pseudomonas aeruginosa ATCC 10145; details: ATCC10145, Muller-Hinton agar, 37°C, 20 hours, read-out: MIC values against the standard strains
Protocol: as §1

[16] = system: Pseudomonas aeruginosa ATCC 25619; details: ATCC25619, Muller-Hinton agar, 37°C, 20 hours, read-out: MIC values against the standard strains
Protocol: as §1

[17] = system: Pseudomonas aeruginosa ATCC 27853; details: ATCC27853, Muller-Hinton agar, 37°C, 20 hours, read-out: MIC values against the standard strains
Protocol: as §1

[18] = system: Salmonella typhimurium ATCC 14028; details: Salmonella enterica; Muller-Hinton agar; 37°C; 20 hours; read-out: MIC values against the standard strains
Protocol: as §1

[19] = system: Serratia marcescens ATCC 27117; details: ATCC27117, Muller-Hinton agar, 37°C, 20 hours, read-out: MIC values against the standard strains
Protocol: as §1

[20] = system: Shigella flexneri ATCC 11836; details: ATCC11836, Muller-Hinton agar, 37°C, 20 hours, read-out: MIC values against the standard strains
Protocol: as §1

[21] = system: Shigella sonnei ATCC 11060; details: ATCC11060, Muller-Hinton agar, 37°C, 20 hours, read-out: MIC values against the standard strains
Protocol: as §1

[22] = system: Staphylococcus aureus ATCC 10537; details: ATCC10537, Muller-Hinton agar, 37°C, 20 hours, read-out: MIC values against the standard strains
Protocol: as §1

[23] = system: Staphylococcus aureus ATCC 6538p; details: ATCC6538P, Muller-Hinton agar, 37°C, 20 hours, read-out: MIC values against the standard strains
Protocol: as §1

[24] = system: Staphylococcus epidermidis ATCC 12228; details: ATCC12228, Muller-Hinton agar, 37°C, 20 hours, read-out: MIC values against the standard strains
Protocol: as §1

[25] = system: Streptococcus faecalis ATCC 29212; details: Enterococcus faecalis, ATCC29212; Muller-Hinton agar; 37°C; 20 hours; read-out: MIC values against the standard strains
Protocol: as §1

SMILES | MIC [1] | MIC [2] | MIC [3] | MIC [4] | MIC [5] | MIC [6] | MIC [7] | MIC [8] | MIC [9] | MIC [10] | MIC [11] | MIC [14] | MIC [15] | MIC [16] | MIC [17] | MIC [18] | MIC [19] | MIC [20] | MIC [21] | MIC [22] | also measured
Cc1c[n+](N)c(SCC2=C(C(=O)[O-])N3C(=O)[C@@H](NC(=O)/C(=N\OC(C)(C)C(=O)O)c4csc(N)n4)[C@H]3SC2)nc1N [Example 57] | 16 µg/mL (≈ 25.7 µM) | 128 µg/mL (≈ 205 µM) | 0.25 µg/mL (≈ 0.401 µM) | 0.031 µg/mL (≈ 0.0497 µM) | 0.5 µg/mL (≈ 0.802 µM) | ≤ 0.008 µg/mL | 0.063 µg/mL (≈ 0.101 µM) | 0.063 µg/mL (≈ 0.101 µM) | 0.063 µg/mL (≈ 0.101 µM) | 0.25 µg/mL (≈ 0.401 µM) | ≤ 0.008 µg/mL | ≤ 0.008 µg/mL | 2 µg/mL (≈ 3.21 µM) | 1 µg/mL (≈ 1.6 µM) | 2 µg/mL (≈ 3.21 µM) | 0.13 µg/mL (≈ 0.208 µM) | 0.13 µg/mL (≈ 0.208 µM) | 0.063 µg/mL (≈ 0.101 µM) | 0.063 µg/mL (≈ 0.101 µM) | 2 µg/mL (≈ 3.21 µM) | MIC [12]: 0.031 µg/mL (≈ 0.0497 µM); MIC [13]: 0.031 µg/mL (≈ 0.0497 µM); MIC [23]: 8 µg/mL (≈ 12.8 µM); MIC [24]: 2 µg/mL (≈ 3.21 µM); MIC [25]: > 128 µg/mL
CNc1cc(N)nc(SCC2=C(C(=O)[O-])N3C(=O)[C@@H](NC(=O)/C(=N\OC(C)(C)C(=O)O)c4csc(N)n4)[C@H]3SC2)[n+]1C [Example 35, 7-[(Z)-2-(2-aminothiazol-4-yl)-2-(carboxyprop-2-oxyimino)acetamido]-3-(4-amino-6-methylamino-1-methylpyrimidinium-2-yl)thiomethyl-3-cephem-4-carboxylate] | 8 µg/mL (≈ 12.5 µM) | 128 µg/mL (≈ 201 µM) | 0.5 µg/mL (≈ 0.784 µM) | 0.063 µg/mL (≈ 0.0988 µM) | 1 µg/mL (≈ 1.57 µM) | ≤ 0.008 µg/mL | 0.063 µg/mL (≈ 0.0988 µM) | 0.063 µg/mL (≈ 0.0988 µM) | 0.063 µg/mL (≈ 0.0988 µM) | 0.25 µg/mL (≈ 0.392 µM) | ≤ 0.008 µg/mL | ≤ 0.008 µg/mL | 2 µg/mL (≈ 3.14 µM) | 2 µg/mL (≈ 3.14 µM) | 2 µg/mL (≈ 3.14 µM) | 0.13 µg/mL (≈ 0.204 µM) | 0.13 µg/mL (≈ 0.204 µM) | 0.031 µg/mL (≈ 0.0486 µM) | 0.063 µg/mL (≈ 0.0988 µM) | 2 µg/mL (≈ 3.14 µM) | MIC [12]: 0.031 µg/mL (≈ 0.0486 µM); MIC [13]: 0.063 µg/mL (≈ 0.0988 µM); MIC [23]: 4 µg/mL (≈ 6.27 µM); MIC [24]: 2 µg/mL (≈ 3.14 µM); MIC [25]: > 128 µg/mL
CCO/N=C(\C(=O)N[C@@H]1C(=O)N2C(C(=O)[O-])=C(CSc3nc(N)cc(OCC(=O)O)[n+]3C)CS[C@H]12)c1csc(N)n1 [Example 19, 7-[(Z)-2-(2-aminothiazol-4-yl)-2-(ethoxyimino)acetamido]-3-(4-amino-6-carboxymethoxy-1-methylpyrimidinium-2-yl)thiomethyl-3-cephem-4-carboxylate] | 16 µg/mL (≈ 25.6 µM) | 128 µg/mL (≈ 205 µM) | 0.25 µg/mL (≈ 0.4 µM) | 0.063 µg/mL (≈ 0.101 µM) | 1 µg/mL (≈ 1.6 µM) | ≤ 0.008 µg/mL | 0.063 µg/mL (≈ 0.101 µM) | 0.063 µg/mL (≈ 0.101 µM) | 0.031 µg/mL (≈ 0.0496 µM) | 0.13 µg/mL (≈ 0.208 µM) | ≤ 0.008 µg/mL | ≤ 0.008 µg/mL | 32 µg/mL (≈ 51.2 µM) | 8 µg/mL (≈ 12.8 µM) | 16 µg/mL (≈ 25.6 µM) | 0.25 µg/mL (≈ 0.4 µM) | 0.25 µg/mL (≈ 0.4 µM) | 0.031 µg/mL (≈ 0.0496 µM) | 0.063 µg/mL (≈ 0.101 µM) | 2 µg/mL (≈ 3.2 µM) | MIC [12]: 0.063 µg/mL (≈ 0.101 µM); MIC [13]: 0.063 µg/mL (≈ 0.101 µM); MIC [23]: 4 µg/mL (≈ 6.4 µM); MIC [24]: 2 µg/mL (≈ 3.2 µM); MIC [25]: 64 µg/mL (≈ 102 µM)
CC[C@@H](O/N=C(\C(=O)N[C@@H]1C(=O)N2C(C(=O)[O-])=C(CSc3nc(N)cc[n+]3N)CS[C@H]12)c1csc(N)n1)C(=O)O [Example 88-b, 7-[(Z)-2-(2-aminothiazol-4-yl)-2-{(R)-1-carboxyprop-1-oxyimino}acetamido]-3-(1,4-diaminopyrimidinium-2-yl)thiomethyl-3-cephem-4-carboxylate] | 8 µg/mL (≈ 13.1 µM) | 128 µg/mL (≈ 210 µM) | 1 µg/mL (≈ 1.64 µM) | 0.063 µg/mL (≈ 0.103 µM) | 1 µg/mL (≈ 1.64 µM) | 0.016 µg/mL (≈ 0.0262 µM) | 0.063 µg/mL (≈ 0.103 µM) | 0.031 µg/mL (≈ 0.0508 µM) | 0.031 µg/mL (≈ 0.0508 µM) | 1 µg/mL (≈ 1.64 µM) | ≤ 0.008 µg/mL | ≤ 0.008 µg/mL | 2 µg/mL (≈ 3.28 µM) | 1 µg/mL (≈ 1.64 µM) | 2 µg/mL (≈ 3.28 µM) | 0.25 µg/mL (≈ 0.41 µM) | 0.25 µg/mL (≈ 0.41 µM) | 0.031 µg/mL (≈ 0.0508 µM) | 0.063 µg/mL (≈ 0.103 µM) | 4 µg/mL (≈ 6.56 µM) | MIC [23]: 4 µg/mL (≈ 6.56 µM); MIC [24]: 2 µg/mL (≈ 3.28 µM); MIC [25]: > 128 µg/mL
